≈ marks a conversion by molar mass, not a printed value.
What was measured:
[1] = system: P. acnes CCARM 9010 induced paw inflammation; test: Anti-inflammatory action in vivo, rat paw edema model; set-up: species or system Sprague Dawley rats; conditions: topical, 24 h post initiation of treatment (32 h post induction)
Description: Host inflammation is one of the crucial clinical feature of most of the indications associated with bacterial infections. The inventors used an exemplary compound of the invention (Compound 2) to test the anti-inflammatory effects in vivo using rat paw edema model. Inflammation was induced using one of the opportunistic pathogens Propionibacterium acnes prevalent in implant associated infections. Sprague Dawley rats were used for the study and infection was induced by P. acnes CCARM 9010. An inoculum of 1×10^9 CFU/ml of the heat killed bacteria was injected to the plantar side of the right hind paw (˜2×10^7 CFU/paw) except in sham control where saline was injected. Treatments were initiated 8 h post injection by applying the test formulation of Compound 2 (30 mg) twice daily to the plantar surface of the right hind paw and gently rubbing 50 times with the index finger. Comparators Acnedap (dapsone 5% gel) and adapalene gel (Adaferin®) were applied twice daily and once daily based on clinical prescription dosage. Paw sizes were measured in millimeters using Vernier calipers at the start of the infection, 8 h post infection, and 24 h post initiation of treatment (32 h post induction of inflammation). The change in paw size, due to inflammation, was evaluated as the difference between the paw size measured at each time point and the basal paw size measured immediately before edema induction.

[2] = system: S. epidermidis ATCC 35984 biofilm; test: Biofilm disruption assay (MTT) with compounds and compound loaded beads; assay type: cell-based
Method: S. epidermidis ATCC 35984 was grown in Brain Heart Infusion Agar (BHIA) at 37° C. for 24 h. The loop full of bacterial culture was suspended in sterile water and matched the turbidity against 0.5 McFarland Standard (approximately 1.5×10^8), 100 μl of culture suspension was added into each well of the 96 well plate and plates were incubated at 37° C. for 48 h for biofilm formation. The biofilm formed in each well was washed twice with sterile water to remove the planktonic cells. Then biofilm was treated with 100 yl of BHI broth suspended with various concentrations of DART molecules, followed by incubation of the plates at 37° C. for 24 h. Subsequently the biofilm in the wells were stained with MTT reagent and the plates were incubated at 37° C. for 2 h. The precipitate formed in the wells was dissolved in 100 μl of dimethyl sulfoxide (DMSO) and the absorbance was measured at 600 nm in multi well plate reader to determine the minimum biofilm inhibitory concentration (MBIC). The MBIC was calculated by subtracting the absorbance value of each drug treated sample from that of 48 h growth control.

S. epidermidis S5-2 = test: Sequential ZIB (zone of inhibition) assay for PMMA beads; assay type: cell-based, Staphylococcus epidermidis; conditions: SmartSet HV impregnated beads
Method: S. epidermidis S5-2 cells were grown in Brain Heart Infusion Agar (BHIA) at 37° C. for 24 h. 100 μl of 0.5 McFarland equal bacterial suspension was spread on BHA plates. Drug loaded beads were placed above these plates. Plates were incubated at 37° C. for 24 h. Next day, zone of inhibition (ZOI) the beads were measured following which the beads were placed on fresh BHA plates with bacterial suspension spread and this experiment was continued up to seven days. The drug release pattern was determined by compiling and analyzing the ZOI data of beads on each ZOI cycle up to seven days.

A. baumannii CCARM 12001 = test: MIC by micro broth dilution; assay type: cell-based; conditions: Acinetobacter baumannii, CCARM12001, read-out: Minimum inhibitory concentration (MIC)
Method: (§1) MIC of DART molecules were determined by micro broth dilution as per CLSI guidelines. Bacterial strains were cultured in Brain Heart Infusion Agar (BHIA) at 37° C. for 24 h. For MIC determination, BHI broth (100 μl) was added to each of the wells of a 96 well plate. 100 μl of broth containing drug was added to the first well (1A to 1H) and thereafter serial (double) dilutions were carried out for up to 10 wells (column 1 to column 10 of the 96 well plate). Bacterial inoculum was prepared by adjusting the bacterial culture turbidity to 0.5 McFarland standard (approximately 1.5×10^8 cells/ml) and further diluted (100 times with sterile BHI broth). Diluted bacterial suspension (100 μl) was added to each well except sterility control wells (column 12 of 96 well plate). The plates were incubated at 37° C. for 24 h. The MIC of the test compound was measured after addition of Alamar blue dye.

A. baumannii ATCC 1906 = test: MIC by micro broth dilution; assay type: cell-based; conditions: Acinetobacter baumannii, ATCC1906, read-out: Minimum inhibitory concentration (MIC)
Method: as §1

E. faecium NCIM 5421 = test: MIC by micro broth dilution; assay type: cell-based; conditions: Enterococcus faecium, NCIM5421, read-out: Minimum inhibitory concentration (MIC)
Method: as §1

E. aerogenes M2-1 = test: MIC by micro broth dilution; assay type: cell-based; conditions: Klebsiella aerogenes, M21, read-out: Minimum inhibitory concentration (MIC)
Method: as §1

E. faecium CCARM 5207 = test: MIC by micro broth dilution; assay type: cell-based; conditions: Enterococcus faecium, CCARM5207, read-out: Minimum inhibitory concentration (MIC)
Method: as §1

S. aureus CCARM 3505 = test: MIC by micro broth dilution; assay type: cell-based; conditions: Staphylococcus aureus, CCARM3505, read-out: Minimum inhibitory concentration (MIC)
Method: as §1

S. aureus ATCC 43300 = test: MIC by micro broth dilution; assay type: cell-based; conditions: Staphylococcus aureus, ATCC43300; S. aureus ATCC 43300; read-out: Minimum inhibitory concentration (MIC)
Method: as §1

E. coli BAA 196 = test: MIC by micro broth dilution; assay type: cell-based; conditions: Escherichia coli, BAA196, read-out: Minimum inhibitory concentration (MIC)
Method: as §1

P. aeruginosa CCARM 2161 = test: MIC by micro broth dilution; assay type: cell-based; conditions: Pseudomonas aeruginosa, CCARM2161, read-out: Minimum inhibitory concentration (MIC)
Method: as §1

A. baumannii CCARM 12020 = test: MIC by micro broth dilution; assay type: cell-based; conditions: Acinetobacter baumannii, CCARM12020, read-out: Minimum inhibitory concentration (MIC)
Method: as §1

K. pneumonia ATCC 13883 = test: MIC by micro broth dilution; assay type: cell-based
Method: as §1

S. epidermidis S12-1 = test: MIC by micro broth dilution; assay type: cell-based; conditions: Staphylococcus epidermidis, S121, read-out: Minimum inhibitory concentration (MIC)
Method: as §1

E. fecalis CCARM 5168 = test: MIC by micro broth dilution; assay type: cell-based; conditions: read-out: Minimum inhibitory concentration (MIC)
Method: as §1

E. coli MTCC 1687 = test: MIC by micro broth dilution; assay type: cell-based; conditions: Escherichia coli, MTCC1687, read-out: Minimum inhibitory concentration (MIC)
Method: as §1

P. aeruginosa ATCC 27853 = test: MIC by micro broth dilution; assay type: cell-based; conditions: Pseudomonas aeruginosa, ATCC27853, read-out: Minimum inhibitory concentration (MIC)
Method: as §1

P. aeruginosa CCARM 2204 = test: MIC by micro broth dilution; assay type: cell-based; conditions: Pseudomonas aeruginosa, CCARM2204, read-out: Minimum inhibitory concentration (MIC)
Method: as §1

[3] = system: S. epidermidis ATCC 35984; test: MIC by micro broth dilution; assay type: cell-based; conditions: Staphylococcus epidermidis, ATCC35984, read-out: Minimum inhibitory concentration (MIC)
Method: as §1

E. aerogenes NCIM 5139 = test: MIC by micro broth dilution; assay type: cell-based; conditions: Klebsiella aerogenes, NCIM5139, read-out: Minimum inhibitory concentration (MIC)
Method: as §1

S. aureus MTCC 6908 = test: MIC by micro broth dilution; assay type: cell-based; conditions: Staphylococcus aureus, MTCC6908, read-out: Minimum inhibitory concentration (MIC)
Method: as §1

Gram negative pathogens = test: MIC interpretations, Gram negative pathogens; assay type: cell-based
Method: as §1

With `COc1ccc(-c2ccc3cc(C(=O)O)ccc3c2)cc1C12CC3CC(CC(C3)C1)C2` [Adapalene, adapalene, reference compound] the “Inhibition of inflammation (%) at 24 h post treatment” value [1] was 31.55%.

With `CN[C@H](CC(C)C)C(=O)N[C@H]1C(=O)N[C@@H](CC(N)=O)C(=O)N[C@H]2C(=O)N[C@H]3C(=O)N[C@H](C(=O)N[C@H](C(=O)O)c4cc(O)cc(O)c4-c4cc3ccc4O)[C@H](O)c3ccc(c(Cl)c3)Oc3cc2cc(c3O[C@@H]2O[C@H](CO)[C@@H](O)[C@H](O)[C@H]2O[C@H]2C[C@](C)(N)[C@H](O)[C@H](C)O2)Oc2ccc(cc2Cl)[C@H]1O` [Vancomycin, reference compound] the Biofilm disruption ([2]; PMMA beads of 3 mm diameter) was 40, the EC50 ([2]; Staphylococcus epidermidis, ATCC35984, read-out: Concentration of compounds (mg/ml) for 50% biofilm disruption) was 0.02 to 0.03 mg/mL (≈ 13.8 to 20.7 µM) and the “Sequential ZOI” value (S. epidermidis S5-2; Day-1) was 1.4 cm. For the same molecule, the “Sequential ZOI” value (S. epidermidis S5-2; Day-2) was 1.2 cm, the “Sequential ZOI” value (S. epidermidis S5-2; Day-3) was 0.7 cm and the “Sequential ZOI” value (S. epidermidis S5-2; Day-4) was 0.7 cm. For the same molecule, the “Sequential ZOI” value (S. epidermidis S5-2; Day-5) was 0 cm, the “Sequential ZOI” value (S. epidermidis S5-2; Day-6) was 0 cm and the “Sequential ZOI” value (S. epidermidis S5-2; Day-7) was 0 cm.

`CC1SC2C(C(=O)O)C(=O)c3cc(F)c(N4CCN(CC(=O)c5ccccn5)CC4)cc3N12` (centres unmarked) [Compound 33, 6-Fluoro-1-methyl-4-oxo-7-(4-(2-oxo-2-(pyridin-2-yl)ethyl)piperazin-1-yl)-2a,3-dihydro-1H,4H-[1,3]thiazeto[3,2-a]quinoline-3-carboxylic acid] showed an MIC (A. baumannii CCARM 12001) of 16 µg/mL (≈ 34 µM), an MIC (A. baumannii ATCC 1906) of 0.06 µg/mL (≈ 0.128 µM) and an MIC (E. faecium NCIM 5421) of 0.125 µg/mL (≈ 0.266 µM). The MIC (E. aerogenes M2-1) was 0.06 µg/mL (≈ 0.128 µM), the MIC (E. faecium CCARM 5207) was 8 µg/mL (≈ 17 µM) and the MIC (S. aureus CCARM 3505) was over 16 µg/mL. The MIC (S. aureus ATCC 43300) was 0.25 µg/mL (≈ 0.531 µM), the MIC (E. coli BAA 196) was 2 µg/mL (≈ 4.25 µM) and the MIC (P. aeruginosa CCARM 2161) was 16 µg/mL (≈ 34 µM). The MIC (A. baumannii CCARM 12020) was 4 µg/mL (≈ 8.5 µM), the activity in words (K. pneumonia ATCC 13883; Klebsiella pneumonia (susceptible)) was “active” and the MIC (K. pneumonia ATCC 13883; Klebsiella pneumoniae, ATCC13883, K. pneumonia ATCC 13883, read-out: Minimum inhibitory concentration (MIC)) was 0.06 µg/mL (≈ 0.128 µM). The MIC (S. epidermidis S12-1) was 8 µg/mL (≈ 17 µM), the MIC (E. fecalis CCARM 5168) was 0.5 µg/mL (≈ 1.06 µM) and the MIC (E. coli MTCC 1687) was under 0.03 µg/mL. The MIC (P. aeruginosa ATCC 27853) was 0.5 µg/mL (≈ 1.06 µM), the MIC (P. aeruginosa CCARM 2204) was 8 µg/mL (≈ 17 µM) and the MIC [3] was 0.13 µg/mL (≈ 0.276 µM). It also gave an MIC (E. aerogenes NCIM 5139) of 0.0312 µg/mL (≈ 0.0663 µM), an MIC (S. aureus MTCC 6908) of 0.25 µg/mL (≈ 0.531 µM) and an MIC (Gram negative pathogens; Escherichia coli, resistant E. coli (MDR) and E. aerogens) of at most 1 µg/mL. For the same molecule, the “bio-activity (MIC) range” value (Gram negative pathogens; different resistant strains of P. aeruginosa, A. baumanni) was 4 to 16 µg/mL.
